According to ChEMBL document CHEMBL1201862, “PubChem BioAssay data set” (2004):
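Where inhibition never reached the appropriate level, the endpoint shown equals the highest concentration tested. Otherwise, values were interpolated linearly from a five-concentration, 48-hour dose response in 96-well plates. Abbreviation: GI50, concentration required for 50% inhibition of growth.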 Calls of active or inactive are those of the source. No stated cut-off is given here; in the data, active = GI50 up to about 1.1 µM and inactive = higher.

Tests used:
Experiment in all cases: NCI-60 cell line screen, 48 h
MDA-N = test system: MDA-N
SNB-19 = test system: SNB-19
LOX IMVI = test system: LOX IMVI
UACC-257 = test system: UACC-257
OVCAR-5 = test system: OVCAR-5
HCT-15 = test system: HCT-15
RPMI-8226 = test system: RPMI-8226
SF-295 = test system: SF-295
HCT-116 = test system: HCT-116
UACC-62 = test system: UACC-62
CAKI-1 = test system: CAKI-1
MCF7 = test system: MCF7
K562 = test system: K562
SK-OV-3 = test system: SK-OV-3
SNB-75 = test system: SNB-75
PC-3 = test system: PC-3
A549 = test system: A549
KM12 = test system: KM12
HOP-62 = test system: HOP-62
NCI-H23 = test system: NCI-H23
OVCAR-8 = test system: OVCAR-8
NCI-H226 = test system: NCI-H226
IGROV-1 = test system: IGROV-1
DU-145 = test system: DU-145
HCC 2998 = test system: HCC 2998
SK-MEL-5 = test system: SK-MEL-5
COLO 205 = test system: COLO 205
Hs-578T = test system: Hs-578T
MDA-MB-231 = test system: MDA-MB-231
SK-MEL-28 = test system: SK-MEL-28
A498 = test system: A498
M14 = test system: M14
EKVX = test system: EKVX
NCI-H460 = test system: NCI-H460
SF-539 = test system: SF-539
OVCAR-3 = test system: OVCAR-3
RXF 393 = test system: RXF 393
MOLT-4 = test system: MOLT-4
OVCAR-4 = test system: OVCAR-4
SN12C = test system: SN12C
SW-620 = test system: SW-620
ACHN = test system: ACHN
UO-31 = test system: UO-31
786-0 = test system: 786-0
TK-10 = test system: TK-10
MDA-MB-435 = test system: MDA-MB-435
HL-60 = test system: HL-60
NCI/ADR-RES = test system: NCI/ADR-RES
CCRF-CEM = test system: CCRF-CEM
HT-29 = test system: HT-29
BT-549 = test system: BT-549
Malme-3M = test system: Malme-3M
SF-268 = test system: SF-268
SR = test system: SR
U-251 = test system: U-251
HOP-92 = test system: HOP-92
T47D = test system: T47D
SK-MEL-2 = test system: SK-MEL-2
NCI-H522 = test system: NCI-H522

Measured: GI50

COCCOCCOCCC(=O)NC1CC2CCC1(C)C2(C)C (stereo not given)
> 100 µM: HCT-15
inactive: MDA-N > 100 µM | SNB-19 > 100 µM | LOX IMVI > 100 µM | UACC-257 > 100 µM | OVCAR-5 > 100 µM | RPMI-8226 > 100 µM | SF-295 > 100 µM | HCT-116 > 100 µM | UACC-62 > 100 µM | CAKI-1 > 100 µM | MCF7 > 100 µM | K562 > 100 µM | SK-OV-3 > 100 µM | SNB-75 > 100 µM | PC-3 > 100 µM | A549 > 100 µM | KM12 > 100 µM | HOP-62 > 100 µM | NCI-H23 > 100 µM | OVCAR-8 > 100 µM | NCI-H226 > 100 µM | IGROV-1 > 100 µM | DU-145 > 100 µM | HCC 2998 > 100 µM | SK-MEL-5 > 100 µM | COLO 205 > 100 µM | Hs-578T > 100 µM | MDA-MB-231 > 100 µM | SK-MEL-28 > 100 µM | A498 > 100 µM | M14 > 100 µM | EKVX > 100 µM | NCI-H460 > 100 µM | SF-539 > 100 µM | OVCAR-3 > 100 µM | RXF 393 > 100 µM | MOLT-4 > 100 µM | OVCAR-4 > 100 µM | SN12C > 100 µM | SW-620 > 100 µM | ACHN > 100 µM | UO-31 > 100 µM | 786-0 > 100 µM | TK-10 > 100 µM | MDA-MB-435 > 100 µM | HL-60 > 100 µM | NCI/ADR-RES > 100 µM | CCRF-CEM > 100 µM | HT-29 > 100 µM | BT-549 > 100 µM | Malme-3M > 100 µM | SF-268 > 100 µM | SR > 100 µM | U-251 > 100 µM

O=Cc1ccc2c(c1)CC1(C2)Cc2ccc(C=O)cc2C1
active: RPMI-8226 0.274 µM
7.03 µM: HCT-15
inactive: MDA-N 2.45 µM | SNB-19 25.1 µM | LOX IMVI 6.07 µM | UACC-257 18.8 µM | OVCAR-5 > 77.1 µM | SF-295 > 45.2 µM | HCT-116 7.52 µM | UACC-62 6.76 µM | CAKI-1 44.9 µM | MCF7 31.8 µM | K562 2.89 µM | SK-OV-3 55.2 µM | SNB-75 61.8 µM | PC-3 17.1 µM | A549 40.5 µM | KM12 28.1 µM | HOP-62 14.7 µM | NCI-H23 17.6 µM | HOP-92 20.6 µM | T47D 25.8 µM | OVCAR-8 7.26 µM | NCI-H226 22.8 µM | IGROV-1 21.5 µM | DU-145 35.5 µM | HCC 2998 35.8 µM | SK-MEL-5 5.28 µM | COLO 205 30.3 µM | Hs-578T 3.26 µM | MDA-MB-231 12.2 µM | SK-MEL-28 23.7 µM | A498 28.1 µM | M14 6.14 µM | EKVX 28.2 µM | NCI-H460 11.6 µM | SK-MEL-2 11.8 µM | SF-539 4.81 µM | OVCAR-3 13.9 µM | RXF 393 3.61 µM | MOLT-4 2.77 µM | OVCAR-4 12.4 µM | SN12C 28.2 µM | SW-620 16.1 µM | ACHN 24.4 µM | UO-31 11.9 µM | 786-0 7.45 µM | TK-10 8.81 µM | MDA-MB-435 2.62 µM | HL-60 2 µM | NCI/ADR-RES 4.88 µM | CCRF-CEM 1.68 µM | HT-29 24.5 µM | NCI-H522 22.6 µM | Malme-3M 20 µM | SF-268 13.4 µM | SR 2.67 µM | U-251 8.69 µM

COc1ccc(N[C@H](C[S+]([O-])c2ccc(C)cc2)c2ccc(F)cc2)cc1 (stereo not given in full)
active: IGROV-1 < 0.01 µM
27.5 µM: HCT-15
inactive: MDA-N 39.3 µM | SNB-19 35.8 µM | LOX IMVI > 100 µM | UACC-257 > 100 µM | OVCAR-5 > 100 µM | RPMI-8226 > 100 µM | SF-295 41.8 µM | HCT-116 > 100 µM | UACC-62 34.4 µM | CAKI-1 > 100 µM | MCF7 16.6 µM | K562 > 100 µM | SK-OV-3 72.3 µM | SNB-75 27.2 µM | PC-3 82.4 µM | A549 43 µM | KM12 > 100 µM | HOP-62 33.7 µM | NCI-H23 13.2 µM | T47D 10.3 µM | OVCAR-8 > 100 µM | DU-145 96.6 µM | HCC 2998 > 100 µM | SK-MEL-5 12.9 µM | COLO 205 > 100 µM | MDA-MB-231 40.5 µM | SK-MEL-28 > 100 µM | M14 64.3 µM | EKVX > 100 µM | NCI-H460 91.2 µM | SK-MEL-2 > 100 µM | SF-539 22.3 µM | OVCAR-3 > 100 µM | RXF 393 48.4 µM | MOLT-4 > 100 µM | OVCAR-4 94.2 µM | SN12C 54.3 µM | SW-620 > 100 µM | ACHN 52.6 µM | UO-31 > 100 µM | 786-0 65.3 µM | TK-10 > 100 µM | MDA-MB-435 > 100 µM | NCI/ADR-RES 26.9 µM | CCRF-CEM > 100 µM | HT-29 > 100 µM | NCI-H522 13.2 µM | BT-549 > 100 µM | Malme-3M 31.9 µM | SF-268 24.7 µM | U-251 44.5 µM

COC(=O)NC(=O)NC(Cc1ccccc1)NC(=O)OCc1ccccc1 (stereo not given)
> 100 µM: HCT-15
inactive: MDA-N > 100 µM | SNB-19 42.7 µM | LOX IMVI > 100 µM | UACC-257 > 100 µM | OVCAR-5 > 100 µM | RPMI-8226 > 100 µM | SF-295 35.5 µM | HCT-116 39.3 µM | UACC-62 > 100 µM | CAKI-1 > 100 µM | MCF7 > 100 µM | K562 > 100 µM | SK-OV-3 18 µM | SNB-75 20.2 µM | PC-3 > 100 µM | A549 97.7 µM | KM12 > 100 µM | HOP-62 47.2 µM | NCI-H23 40.3 µM | HOP-92 18.1 µM | T47D > 100 µM | OVCAR-8 74.1 µM | NCI-H226 > 100 µM | IGROV-1 70.8 µM | DU-145 > 100 µM | HCC 2998 > 100 µM | SK-MEL-5 > 100 µM | COLO 205 > 100 µM | MDA-MB-231 18.5 µM | SK-MEL-28 > 100 µM | A498 30.3 µM | M14 > 100 µM | EKVX > 100 µM | NCI-H460 > 100 µM | SK-MEL-2 63.2 µM | SF-539 19.6 µM | OVCAR-3 > 100 µM | RXF 393 20.5 µM | MOLT-4 > 100 µM | OVCAR-4 > 100 µM | SN12C > 100 µM | SW-620 > 100 µM | ACHN > 100 µM | UO-31 30.9 µM | 786-0 37.8 µM | TK-10 45.4 µM | MDA-MB-435 > 100 µM | HL-60 > 100 µM | NCI/ADR-RES > 100 µM | CCRF-CEM > 100 µM | HT-29 > 100 µM | NCI-H522 28.3 µM | BT-549 31.1 µM | Malme-3M > 100 µM | SF-268 48.1 µM | SR > 100 µM | U-251 44.1 µM

O=c1[nH]nc(Cc2ccccc2)n1-n1cnnc1
> 100 µM: HCT-15
inactive: MDA-N > 100 µM | SNB-19 > 100 µM | LOX IMVI > 100 µM | UACC-257 > 100 µM | OVCAR-5 > 100 µM | RPMI-8226 > 100 µM | SF-295 > 100 µM | HCT-116 > 100 µM | UACC-62 > 100 µM | MCF7 > 100 µM | K562 > 100 µM | SK-OV-3 > 100 µM | SNB-75 > 100 µM | PC-3 > 100 µM | A549 > 100 µM | KM12 > 100 µM | HOP-62 > 100 µM | NCI-H23 > 100 µM | HOP-92 > 100 µM | OVCAR-8 > 100 µM | IGROV-1 > 100 µM | DU-145 > 100 µM | HCC 2998 > 100 µM | SK-MEL-5 > 100 µM | COLO 205 > 100 µM | MDA-MB-231 > 100 µM | SK-MEL-28 > 100 µM | M14 > 100 µM | EKVX > 100 µM | SK-MEL-2 > 100 µM | SF-539 > 100 µM | OVCAR-3 > 100 µM | RXF 393 > 100 µM | MOLT-4 > 100 µM | OVCAR-4 > 100 µM | SN12C > 100 µM | SW-620 > 100 µM | ACHN > 100 µM | UO-31 > 100 µM | 786-0 > 100 µM | TK-10 > 100 µM | MDA-MB-435 > 100 µM | NCI/ADR-RES > 100 µM | CCRF-CEM > 100 µM | HT-29 > 100 µM | NCI-H522 > 100 µM | BT-549 > 100 µM | SF-268 > 100 µM | SR > 100 µM | U-251 > 100 µM
